In ChEMBL document CHEMBL6083276, “Pan-Transcriptional Enhanced Associated Domain Palmitoylation Pocket Covalent Inhibitor” (J Med Chem, 2024):
Active and inactive are the calls of the source. The calls are words filed in the database; no cut-off is given here.

Tests used:
[1] = Inhibition of palmitoylation site of TEAD (unknown origin) in human Hippo Pathway/TEAD Luciferase reporter MCF7 cells assessed as reduction in transcriptional activation by measuring luciferase activity incubated for 24 hrs by Promega One-Glo luciferase reagent based assay; format: cell-based, Hippo Pathway/TEAD Luciferase reporter MCF7 cell; details: MCF7, 24 h
NCI-H226 [2] = assay: Cytotoxicity against human NCI-H226 cells assessed as reduction in cell viability incubated for 144 hrs by CellTiter-Glo luciferase assay; format: functional, cell-based; details: NCI-H226, 144 h
[3] = Selectivity index, ratio of IC50 for human NCI-H28 cells to IC50 for human NCI-H226 cells
[4] = (§1) Inhibition of CTGF gene expression in human NCI-H226 cells at 30 nM incubated for 24 hrs by RT-qPCR analysis relative to control; format: functional
[5] = (§2) Inhibition of CYR61 gene expression in human NCI-H226 cells at 30 nM incubated for 24 hrs by RT-qPCR analysis relative to control; format: functional
NCI-H226 [6] = assay: Inhibition of CTGF gene expression in human NCI-H226 cells at 300 nM incubated for 24 hrs by RT-qPCR analysis; format: functional, cell-based
NCI-H226 [7] = assay: Inhibition of CYR61 gene expression in human NCI-H226 cells at 300 nM incubated for 24 hrs by RT-qPCR analysis; format: functional, cell-based
NCI-H226 [8] = assay: Inhibition of CTGF gene expression in human NCI-H226 cells incubated for 24 hrs by RT-qPCR analysis; format: functional, cell-based; details: dose 30-300 nM
NCI-H226 [9] = assay: Inhibition of CYR61 gene expression in human NCI-H226 cells incubated for 24 hrs by RT-qPCR analysis; format: functional, cell-based; details: dose 30-300 nM
[10] = molecular target: Transcriptional enhancer factor TEF-1 (Homo sapiens) (UniProt P28347); assay: Inhibition of Myc-tagged TEAD1 (unknown origin) palmitoylation transfected in HEK293 cells at 300 nM incubated for 24 hrs by palmitoylation assay; format: cell-based
[11] = molecular target: Transcriptional enhancer factor TEF-4 (Homo sapiens) (UniProt Q15562); assay: Inhibition of Myc-tagged TEAD2 (unknown origin) palmitoylation transfected in HEK293 cells at 300 nM incubated for 24 hrs by palmitoylation assay; format: cell-based
[12] = molecular target: Transcriptional enhancer factor TEF-5 (Homo sapiens) (UniProt Q99594); assay: Inhibition of Myc-tagged TEAD3 (unknown origin) palmitoylation transfected in HEK293 cells at 300 nM incubated for 24 hrs by palmitoylation assay; format: cell-based
[13] = molecular target: Transcriptional enhancer factor TEF-3 (Homo sapiens) (UniProt Q15561); assay: Inhibition of Myc-tagged TEAD4 (unknown origin) palmitoylation transfected in HEK293 cells at 300 nM incubated for 24 hrs by palmitoylation assay; format: cell-based
NCI-H226 [14] = assay: Cytotoxicity against human NCI-H226 cells assessed as reduction in cell viability at 0.1 to 1 uM incubated for 12 to 48 hrs; format: functional, cell-based; details: dose 0.1-1 µM, time 12-48 hrs
HEK293 = assay: Cytotoxicity against HEK293 cells assessed as reduction in cell viability at 0.1 to 1 uM incubated for 12 to 48 hrs; format: toxicity, cell-based; details: human, hek293, 1 µM; dose lower 0.1 µM, time lower 12 hrs, dose upper 1 µM, time upper 48 hrs
[15] = Metabolic stability in mouse liver microsomes assessed as parent compound remaining measured after 15 mins by LC-MS/MS analysis; format: ADME, Microsome; details: read-out: Stability
[16] = Metabolic stability in mouse liver microsomes assessed as parent compound remaining measured after 30 mins by LC-MS/MS analysis; format: ADME, Microsome; details: read-out: Stability
[17] = Metabolic stability in human liver microsomes assessed as parent compound remaining measured after 15 mins by LC-MS/MS analysis; format: ADME, Microsome; details: read-out: Stability
[18] = Metabolic stability in human liver microsomes assessed as parent compound remaining measured after 30 mins by LC-MS/MS analysis; format: ADME, Microsome; details: read-out: Stability
[19] = Cmax in mouse at 10 mg/kg, po measured after 24 hrs by LC-MS/MS analysis; format: ADME, organism-based; details: in vivo
[20] = Tmax in mouse at 10 mg/kg, po measured after 24 hrs by LC-MS/MS analysis; format: ADME, organism-based; details: in vivo
[21] = AUClast in mouse at 10 mg/kg, po measured after 24 hrs by LC-MS/MS analysis; format: ADME, organism-based; details: in vivo
[22] = MRT in mouse at 10 mg/kg, po measured after 24 hrs by LC-MS/MS analysis; format: ADME, organism-based; details: in vivo
[23] = Half-life in mouse at 10 mg/kg, po measured after 24 hrs by LC-MS/MS analysis; format: ADME, organism-based; details: in vivo
NCI-H226 [24] = assay: Antitumor activity against human NCI-H226 cells xenografted in mouse assessed as reduction in tumor size at 10 to 30 mg/kg, po measured upto 28 days; format: functional, organism-based; details: dose 10-30 mg/kg, time <= 28.0 day
NCI-H226 [25] = assay: Antitumor activity against human NCI-H226 cells xenografted in mouse assessed as tumor growth inhibition at 30 mg/kg, po measured after 17 days; format: functional, organism-based; details: time 17.0 day
[26] = Toxicity in mouse xenografted with human NCI-H226 cells assessed as body weight loss at 10 to 30 mg/kg, po administered for 28 days; format: organism-based; details: in vivo, 672 h, dose 10-30 mg/kg, time 28 day
[27] = tested on: Hippo Pathway/TEAD Luciferase reporter MCF7 cell; assay: Inhibition of palmitoylation site of TEAD (unknown origin) in human Hippo Pathway/TEAD Luciferase reporter MCF7 cells assessed as reduction in transcriptional activation by measuring luciferase activity at 1000 nM incubated for 24 hrs by Promega One-Glo luciferase reagent based assay
NCI-H226 [28] = assay: as §1; format: functional
NCI-H226 [29] = assay: as §2; format: functional
NCI-H226 [30] = assay: Antitumor activity against human NCI-H226 cells xenografted in mouse assessed as reduction in tumor volume at 10 mg/kg, po administered for 28 days; format: functional, organism-based; details: time 28.0 day
NCI-H226 [31] = assay: Antitumor activity against human NCI-H226 cells xenografted in mouse assessed as tumor growth inhibition at 30 mg/kg, po administered for 28 days; format: functional, organism-based; details: time 28.0 day

Sequence of Transcriptional enhancer factor TEF-5 (Homo sapiens) (Q99594 whole entry): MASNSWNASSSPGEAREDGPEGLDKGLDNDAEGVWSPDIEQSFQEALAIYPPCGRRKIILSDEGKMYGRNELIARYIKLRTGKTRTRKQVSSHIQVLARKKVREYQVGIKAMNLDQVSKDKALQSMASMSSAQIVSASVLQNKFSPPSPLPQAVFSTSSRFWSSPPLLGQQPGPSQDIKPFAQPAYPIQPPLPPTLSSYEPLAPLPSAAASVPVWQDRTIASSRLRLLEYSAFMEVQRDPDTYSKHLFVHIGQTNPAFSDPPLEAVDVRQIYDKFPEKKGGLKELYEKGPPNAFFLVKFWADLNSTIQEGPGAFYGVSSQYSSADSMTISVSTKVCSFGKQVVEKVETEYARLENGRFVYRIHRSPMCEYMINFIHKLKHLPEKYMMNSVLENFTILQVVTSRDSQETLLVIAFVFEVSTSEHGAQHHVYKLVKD
Sequence of Transcriptional enhancer factor TEF-1 (Homo sapiens) (P28347 whole entry): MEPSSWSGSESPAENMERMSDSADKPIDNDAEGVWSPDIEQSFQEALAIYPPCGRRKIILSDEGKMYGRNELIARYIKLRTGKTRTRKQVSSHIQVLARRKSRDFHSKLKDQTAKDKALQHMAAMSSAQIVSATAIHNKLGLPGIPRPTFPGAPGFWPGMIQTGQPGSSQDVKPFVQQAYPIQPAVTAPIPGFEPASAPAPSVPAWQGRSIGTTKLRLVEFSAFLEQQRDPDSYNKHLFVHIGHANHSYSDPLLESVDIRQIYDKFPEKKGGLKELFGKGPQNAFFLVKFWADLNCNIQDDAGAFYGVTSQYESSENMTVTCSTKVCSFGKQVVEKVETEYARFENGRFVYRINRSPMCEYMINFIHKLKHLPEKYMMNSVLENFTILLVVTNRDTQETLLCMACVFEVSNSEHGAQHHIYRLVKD
Sequence of Transcriptional enhancer factor TEF-4 (Homo sapiens) (Q15562 whole entry): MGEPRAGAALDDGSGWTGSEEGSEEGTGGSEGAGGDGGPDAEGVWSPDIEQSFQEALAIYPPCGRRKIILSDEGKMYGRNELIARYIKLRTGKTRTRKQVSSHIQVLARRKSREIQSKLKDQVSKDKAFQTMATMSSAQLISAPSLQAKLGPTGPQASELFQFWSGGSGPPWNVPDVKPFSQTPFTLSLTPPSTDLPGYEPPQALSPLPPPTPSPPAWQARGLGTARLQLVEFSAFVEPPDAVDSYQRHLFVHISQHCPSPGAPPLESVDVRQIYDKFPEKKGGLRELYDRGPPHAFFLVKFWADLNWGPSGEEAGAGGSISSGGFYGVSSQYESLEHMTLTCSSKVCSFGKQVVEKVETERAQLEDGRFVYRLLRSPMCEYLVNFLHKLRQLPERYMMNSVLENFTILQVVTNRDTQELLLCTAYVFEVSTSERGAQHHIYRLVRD
Sequence of Transcriptional enhancer factor TEF-3 (Homo sapiens) (Q15561 whole entry): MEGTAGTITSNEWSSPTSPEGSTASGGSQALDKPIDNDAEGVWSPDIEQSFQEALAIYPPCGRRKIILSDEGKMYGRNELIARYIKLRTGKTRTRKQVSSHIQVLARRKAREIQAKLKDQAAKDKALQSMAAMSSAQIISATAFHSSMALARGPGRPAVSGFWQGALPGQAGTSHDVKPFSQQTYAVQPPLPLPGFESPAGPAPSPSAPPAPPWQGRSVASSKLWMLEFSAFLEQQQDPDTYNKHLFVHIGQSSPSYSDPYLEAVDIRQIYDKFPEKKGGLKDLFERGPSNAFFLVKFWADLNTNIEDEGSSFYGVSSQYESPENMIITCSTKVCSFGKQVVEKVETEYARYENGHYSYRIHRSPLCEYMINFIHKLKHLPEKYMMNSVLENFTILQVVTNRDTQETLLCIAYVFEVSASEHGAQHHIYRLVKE

C=CC(=O)N1CCc2ccc(-c3ccc(C(F)(F)F)cc3)cc2C1
IC50 [1]: 0.34 nM | IC50 (NCI-H226 [2]): 3.34 nM | Ratio IC50 [3]: >150 | inhibition at 0.03 µM [4]: > 50% | inhibition at 0.03 µM [5]: > 50% | inhibition (NCI-H226 [6]): Active; Higher Inhibition Observed | inhibition (NCI-H226 [7]): Active; Higher Inhibition Observed | inhibition (NCI-H226 [8]): Dose-dependent-effect | inhibition (NCI-H226 [9]): Dose-dependent-effect | inhibition [10]: Active | inhibition [11]: Active | inhibition [12]: Active | inhibition [13]: Active | Activity (NCI-H226 [14]): inactive | Activity (HEK293): Non-toxic | remaining at 0.25 h [15]: 75.9% | remaining at 0.5 h [16]: 62.7% | remaining at 0.25 h [17]: 95.9% | remaining at 0.5 h [18]: 79.6% | Cmax [19]: 974 ng/mL | Tmax [20]: 67.5 min | AUC(0-t) at 24 h [21]: 3810 ng·h/mL | MRT [22]: 6.08 h | half-life [23]: 184 min | Activity (NCI-H226 [24]): Active | Activity (NCI-H226 [25]): Active; Compound Showed Sustain Suppression Without Rebound | Activity [26]: Non-toxic

CN(C)C/C=C/C(=O)N1CCc2ccc(-c3ccc(C(F)(F)F)cc3)cc2C1
IC50 [1]: 0.65 nM | inhibition [27]: Active; Incomplete Inhibition Observed | inhibition (NCI-H226 [7]): Active; Minimal Inhibition Observed | inhibition (NCI-H226 [8]): Dose-dependent-effect

C=CC(=O)N1CCc2ccc(-c3ccc(C(F)(F)F)cn3)cc2C1
IC50 [1]: 4.11 nM | IC50 (NCI-H226 [2]): 26.6 nM

C=CC(=O)N1CCc2ccc(-c3ccc(OC(F)(F)F)cc3)cc2C1
IC50 [1]: 0.7 nM | IC50 (NCI-H226 [2]): 22.2 nM

C=CC(=O)N1CCc2ccc(-c3ccc(C(F)(F)F)nc3)cc2C1
IC50 [1]: 5.48 nM | IC50 (NCI-H226 [2]): 391 nM

C=CC(=O)N1CCc2ccc(-c3ccc(C(F)(F)F)cc3Cl)cc2C1
IC50 [1]: 1.04 nM | IC50 (NCI-H226 [2]): 119 nM

C=CC(=O)Nc1ccc(C)c(Oc2ccc(Cl)cc2)c1
IC50 [1]: 0.61 nM | IC50 (NCI-H226 [2]): 10.6 nM | remaining at 0.25 h [15]: 26.4% | remaining at 0.5 h [16]: 9.7% | remaining at 0.25 h [17]: 77.6% | remaining at 0.5 h [18]: 63.5%

C=CC(=O)N1CCc2ccc(-c3ccc(C(F)(F)F)c(F)c3)cc2C1
IC50 [1]: 0.36 nM | IC50 (NCI-H226 [2]): 115 nM

CC#CC(=O)N1CCc2ccc(-c3ccc(C(F)(F)F)cc3)cc2C1
IC50 [1]: 52.4 nM

C=CC(=O)N1CCc2ccc(-c3ccc(C)cc3)cc2C1
IC50 [1]: 4.26 nM | IC50 (NCI-H226 [2]): 3.03 nM

C=CC(=O)N1CCc2ccc(-c3ccccc3)cc2C1
IC50 [1]: 3.15 nM | IC50 (NCI-H226 [2]): 7.04 nM

C=CC(=O)N1CCc2ccc(-c3cccc(C(F)(F)F)c3)cc2C1
IC50 [1]: 0.88 nM | IC50 (NCI-H226 [2]): 85.2 nM

C=CC(=O)N1CCc2ccc(-c3cccs3)cc2C1
IC50 [1]: 5.36 nM | IC50 (NCI-H226 [2]): 402 nM

C=CC(=O)N1CCc2ccc(-c3ccc(F)cc3)cc2C1
IC50 [1]: 0.84 nM | IC50 (NCI-H226 [2]): 21.6 nM

C[C@H](NC(=O)c1ccc2c(-c3ccc(C(F)(F)F)cc3)cccc2c1)c1ccccn1
IC50 [1]: 1.9 nM | IC50 (NCI-H226 [2]): 27.1 nM

CCC(=O)N1CCc2ccc(-c3ccc(C(F)(F)F)cc3)cc2C1
IC50 [1]: 1510 nM

C=C(F)C(=O)N1CCc2ccc(-c3ccc(C(F)(F)F)cc3)cc2C1
IC50 [1]: 1.34 nM | IC50 (NCI-H226 [2]): 30.9 nM | Ratio IC50 [3]: >20 | inhibition (NCI-H226 [28]): inactive | inhibition (NCI-H226 [29]): inactive | inhibition (NCI-H226 [6]): Active | inhibition (NCI-H226 [7]): Active | inhibition [10]: Active | inhibition [12]: Active | Activity (NCI-H226 [14]): inactive | Activity (HEK293): Non-toxic | remaining at 0.25 h [15]: 89.2% | remaining at 0.5 h [16]: 85.1% | remaining at 0.25 h [17]: 98.2% | remaining at 0.5 h [18]: 97.7% | Cmax [19]: 1390 ng/mL | Tmax [20]: 45 min | AUC(0-t) at 24 h [21]: 5410 ng·h/mL | MRT [22]: 7.5 h | half-life [23]: 337 min | Activity (NCI-H226 [30]): Active; Modest Effect Observed | Activity (NCI-H226 [31]): Active | Activity [26]: Non-toxic
